Test results reported in ChEMBL document CHEMBL5257138, “Cytosolic Enzymes Generate Cannabinoid Metabolites 7-Carboxycannabidiol and 11-Nor-9-carboxytetrahydrocannabinol” (ACS Med Chem Lett, 2023).

Columns and labels:
Format in all cases: ADME, subcellular
[1] = Drug metabolism in human liver S9 fraction assessed as metabolite 11-COOH-THC formation at 1 uM incubated for 10 mins in presence of NAD+ by LC-MS/MS analysis; conditions: s9, 10 min
[2] = Drug metabolism in human liver S9 fraction assessed as reduction in metabolite 11-COOH-THC formation by measuring hydralazine IC50 incubated for 20 mins in presence of NAD+ by LC-MS/MS analysis
[3] = Drug metabolism in human liver S9 fraction assessed as reduction in metabolite 11-COOH-THC formation by measuring WIN18446 IC50 incubated for 10 mins in presence of NAD+ by LC-MS/MS analysis
[4] = Drug metabolism in human liver S9 fraction assessed as metabolite 7-COOH-CBD formation at 1 uM incubated for 20 mins in presence of NADPH and NAD+ by LC-MS/MS analysis; conditions: s9, 20 min
[5] = Drug metabolism in human liver cytosol assessed as metabolite 7-COOH-CBD formation at 1 uM incubated for 20 mins in presence of NADPH and NAD+ by LC-MS/MS analysis
[6] = Drug metabolism in human liver S9 fraction assessed as metabolite 7-COOH-CBD formation at 1 uM incubated for 20 mins in presence of NADPH by LC-MS/MS analysis; conditions: s9, 20 min
[7] = Drug metabolism in human liver cytosol assessed as reduction in metabolite 7-COOH-CBD formation by measuring WIN18446 IC50 in presence of NAD+ measured after 30 mins by LC-MS/MS analysis

SMILES | Drug metabolism [1] | IC50 [2] | IC50 [3] | Drug metabolism [4] | Drug metabolism [5] | Drug metabolism [6] | IC50 [7]
CCCCCc1cc(O)c2c(c1)OC(C)(C)[C@@H]1CCC(CO)=C[C@@H]21 | Metabolite_Detected | 53 nM | > 60000 nM |  |  |  | 
C=C(C)[C@@H]1CCC(CO)=C[C@H]1c1c(O)cc(CCCCC)cc1O |  |  |  | Metabolite_Detected | Metabolite_Detected | Metabolite_Notdetected | 285 nM
